Here are results for 1 substance from patent US20230235374A1, “High Throughput Assays for Detecting Translation Readthrough Inducers” (The Trustees of the University of Pennsylvania, priority 2021, published 2023).

Common to all, as to format: binding, shrimp (Artemia salina)
The test system of test [1] is Small RNAs within Stop-POST5 complex. The experiment in a line: AzAt photoincorporation into small RNAs (urea-PAGE, RNAse H fragments). Here is the method:
FIG. 11 illustrates 8% Urea-PAGE resolution of small RNAs.
Photoaffinity labeling with [^3H]-AzAt. Samples in Buffer 4, typically 20 μL, were incubated in the dark (20 min for Stop-POST5 and 80S-IRES complexes, 2 min for release factors) with various concentrations of [^3H]-AzAt at 37° C., transferred to a UV-transparent cuvette which was covered with parafilm to prevent evaporation, and irradiated in a Rayonet photochemical reactor equipped with 300 nm UV lamps for 5 min at room temperature. This was followed by quenching with 2 mM DTT at 37° C. for 5 min under ambient light. The irradiation time gave complete photolysis of the phenyl azide moiety in AzAt. Photolysis was also complete at 5 min in the presence of 1 mM ataluren, ruling out internal filtering effects.
Stop-POST5 and 80S-IRES complexes. 1 μM solutions of either Stop-POST5 or 80S-S.IRES, determined by A260, were photolabeled by [^3H]-AzAt. The sample was then either directly purified by ultracentrifugation through a sucrose cushion to determine the photoincorporation stoichiometry in the complex, or subjected to phenol/chloroform extraction to determine the photoincorporation stoichiometry in the total RNA. To determine the photoincorporation background arising from incomplete removal of noncovalently bound photolyzed AzAt, AzAt was prephotolysed for 5 min before adding to the complex, followed by the 20 min incubation in dark at 37° C. and subsequent sucrose cushion purification or RNA extraction as described above.
(§1) RNaseH Fragment Assay. Total RNA was prepared from the ^3H-AzAt photoaffinity labeled ribosome by phenol-chloroform extraction. RNA: DNA duplexes were formed by incubating total RNA (0.2 μM) with an oligonucleotide pair (1 μM of each, sequences shown Table 1), flanking a specific RNA region, in 22.8 μL of water at 95° C. for 2 min, followed by annealing at 50° C. for 30 s and quenching on ice. Six units (1.2 μL) of RNase H (NEB) and 6 μl of 5×RNase H Reaction Buffer were next added to the RNA: DNA duplex and incubated at 37° C. for 1 hour, followed by phenol-chloroform extraction of RNA. The digested RNA was separated on 12% TBE-Urea PAGE gel, and the target band along with the adjacent upper and bottom gels were sliced by a 2 mm gel cutter. The gel slices were crushed and the ^3H labeled rRNA fragment was extracted in water by vigorously shaking at 70° C. for 30 min, or by overnight extraction in elution buffer (0.3M sodium acetate, 0.25% SDS, 1 mM EDTA). The slurry was removed by centrifugation and the eluted ^3H labeled rRNA in the supernatant was quantified. The stoichiometry of AzAt photoincorporation was calculated based on a gel recovery yield of 20±2%, determined using an authentic sample of [^3H]-Gln-tRNA^Gln.
Small RNAs. AzAt photoincorporation into the 4 small RNAs (CrPV-IRES, 5.8S rRNA, 5S rRNA, and tRNA) contained within POST5 was examined by one-dimensional (1D) urea-PAGE analysis, by RNA-Seq, and by RNAse H fragment assay (FIG. 11).

In test [2] the test system is rRNA fragments I-IV of Stop-POST5. The test is described as follows: RNaseH fragment assay, Stop-POST5. Here is the method: as §1
(§2) Testing the functional pertinence of AzAt photolabeling of 18S A1195, 28S-A3093, 28S-A2672, and 28S-2669. An RNAse H fragment assay was employed to determine whether the potential functionally significant sites identified by LASER-seq correspond to ataluren binding sites relevant for termination activity. In this assay, oligonucleotide hybridization, RNase H digestion and polyacrylamide gel electrophoresis (PAGE) were used to determine the stoichiometry of [^3H]-AzAt photoincorporation into the three rRNA fragments that together include the four nucleotides of interest: Fragment I, 18S-A1195; Fragment II, 26S-A3093; Fragment III, 26S-A2669 and 26S-A2672 (Table 5). The separate addition of four potential competitors of AzAt binding (eRF1 alone, the stably bound eRF1.eRF3.GDPNP complex, ataluren, and the ataluren-like TRID GJ072) was used to test how these affected such photoincorporation. These experiments, the results of which are summarized in Table 5, were performed at two different AzAt concentrations. eRF1 and eRF1.eRF3.GDPNP effects were measured using 300 μM AzAt, paralleling the LASER-Seq PAL experiments.

Test [3] has as its system rRNA fragments I-IV of 80S-IRES. The experiment in a line: RNaseH fragment assay, 80S-IRES. Here is the method:
as §1, §2

Where [4] appears, read: PAL, 300 μM AzAt, alone or plus competing ligand named as label.
Setting [5] is: Stop-POST5, PAL, 300 μM AzAt, alone or plus competing ligand named as label.
Where [6] appears, read: 80S-IRES, PAL, 300 μM AzAt, alone or plus competing ligand named as label.

Consider “eRF1/eRF3/GDPNP: stably bound ternary complex of eRF1, eRF3 and GDPNP used as competing ligand”, for which the “effect on AzAt labeling of CrPV-IRES” value in test [1] (300 μM AzAt) is reported as “partial but significant reduction”. Further, the “Photoincorporation yields into CrPV-IRES nts1-155” value in test [1] (PAL, 300 μM AzAt, alone (AzAt) or plus competing ligand named as label (eRF1 2 μM, eRF3 4 μM, GDPNP 1 mM)) was 4.6 ± 1.4 mole %. Besides, in test [1] (setting [4]), the “Photoincorporation yields into 5S rRNA” value is recorded as 1.3 ± 0.2 mole %, the “Photoincorporation yields into 5.8S rRNA” value is reported as 0.80 ± 0.02 mole %, the “Photoincorporation yields into CrPV-IRES All” value is given as 5.4 ± 0.6 mole % and the “Photoincorporation yields into CrPV-IRES nts156-221” value worked out at 2.9 ± 0.6 mole %. In test [1] (setting [4]), the “Photoincorporation yields into CrPV-IRES nts222-278” value stood at 0.08 ± 0.11 mole % and the “Photoincorporation yields into tRNA^Gln” value was 2.2 ± 0.2 mole %. Besides, the “effect on AzAt labeling of CrPV-IRES fragments 1-155 and 156-221” value in test [1] (RNAse H fragment assay) is on record as “Only minor decreases”. For the same substance, in test [2] (setting [5]), the “Photoincorporation yields into 26S-A2669:A2672/ III: 26S 2638-2702” value is given as 0.19 ± 0.02 mole % and the “Photoincorporation yields into 26S-A3093/ II: 26S 3069-3113” value amounted to 0.18 ± 0.10 mole %. Moreover, the “Photoincorporation yields into RNAse H Fragment IV: 26S 1413-1476” value in test [2] (Stop-POST5, PAL, 300 μM AzAt, alone or plus competing ligand named as label (eRF1 2 μM, eRF3 4 μM, GDPNP 1 mM)) was 0.20 ± 0.01%. Also, the “Photoincorporation yields into 18S A1195/ I: 18S 1151-1206” value in test [2] (Stop-POST5, PAL, 300 μM AzAt, alone or plus competing ligand named as label (eRF1 2 μM, eRF3 4 μM, GDPNP)) is reported as 0.07 ± 0.03 mole %. Also, the “effect on AzAt photoincorporation into Fragments I, II, and III” value in test [2] (Stop-POST5 complex) is given as “strongly inhibited”. In test [3] (setting [6]), the “Photoincorporation yields into 18S A1195/ I: 18S 1151-1206” value is 0.56 ± 0.06 mole %, the “Photoincorporation yields into 26S-A2669:A2672/ III: 26S 2638-2702” value was determined as 0.94 ± 0.23 mole % and the “Photoincorporation yields into 26S-A3093/ II: 26S 3069-3113” value is recorded as 0.55 ± 0.12 mole %. For the same substance, in test [3] (80S.IRES complex), the “effect on AzAt photoincorporation into Fragment I” value is on record as “only partial inhibition”; the “effect on AzAt photoincorporation into Fragments II and III” value is on record as “essentially no inhibition”. Moreover, in test [3] (80S.IRES, PAL, 300 μM AzAt, alone or plus competing ligand named as label), the “Photoincorporation yields into RNAse H Fragment IV: 26S 1413-1476” value turned out to be 0.30 ± 0.03%.
